This note sets out measurements from patent US20140243415A1, “COMPOUNDS INHIBITING GALECTIN-1 EXPRESSION, CANCER CELL PROLIFERATION, INVASION, AND TUMORIGENESIS” (ONCOETHIX SA, priority 2011, published 2014).

One data set has as its system SQ20B xenografts. Description: SQ20B xenograft model. It counts as in vivo. On the procedure: FIG. 6. […] A—The antitumor effects of OTX-008 on A2780-1A9 xenograft were compared to that of active doses of cisplatin and paclitaxel—solid line represents days of treatment. B—Immunohistochemistry of galectin-1, Ki67 (MIB-1) and CD31 on A2780-1A9 xenograft. C—Tumor growth and secondary tumor formation of SQ20B xenografts untreated and treated with 10 mg/kg/day OTX-008 and SQ-shGAL1 xenografts. Tumor volume was determined as 3.14(width2)/length—solid line represents days of treatment. D—Immunohistochemistry of galectin-1, MIB1, VEGFR2 and CD31 on SQ20B xenografts
The immunohistochemical procedure was performed on OCT-embedded subcutaneous tumor stained with H&E, MIB1 ( 1/400, Dako, Glostrup, Denmark), CD31 ( 1/200, Dako), VEGFR2 ( 1/125, Cell Signaling, Saint Quentin Yvelines, France) or galectin-1 (1:20, Abcam, Cambridge, Mass., USA) using an automated immunohistochemical stainer according to the manufacturer's guidelines (streptavidin-peroxidase protocol; Benchmark, Ventana, Tuscon, Ariz., USA). The images were captured and analyzed with a Zeiss observer Z1 microscope. Images quantification was performed using Histolab Software (Microvision, France) subtracting the background. Magnification ×20 and ×40.
5.10^6 SQ20B or SQ20B-shGal1 cancer cells were injected s.c. into the right lateral flank of female nu/nu athymic mice. On day 5, mice were randomized; one group of SQ20B-mice was treated every other day with 10 mg/kg OTX-008 i.p. Tumor size was measured twice weekly with caliper and tumor volume was calculated as 3.14(width^2)/length. At the end of the study, mice were sacrificed, tumors were weighed and stored in OCT for molecular biology and immunohistochemical analysis. Secondary tumors were analyzed on liver, lung, intestine and skin in all mice. Mouse experiments complied with guidelines for Animal Housing and Experiment Board of the French authorities.

The subject of the next data set is GAL1 mRNA. Description: Real-time RT-PCR of GAL1 mRNA. The format is cell-based, human. To be noted: OTX-008 exposed cancer cells. The source says: The theoretical and practical aspects of real-time quantitative RT-PCR using the ABI Prism 7900 Sequence Detection System (Perkin-Elmer Applied Biosystems, Foster City, Calif., USA) have been described in detail elsewhere Results were expressed as n-fold differences in target gene expression relative to the TBP gene (an endogenous RNA control) and relative to a calibrator (1× sample), consisting of the cell line sample from our tested series that contained the smallest amount of target gene mRNA. Experiments were performed in duplicate.
On the technique in general: Real-time PCR tracks product formation cycle by cycle.

Another data set deals with MCF7-shWISP. Description: Antiproliferative effects, shWISP model. It counts as cell-based, human. To be noted: MCF7-shWISP vs MCF7. From the text: FIG. 2. Epithelial-to-mesenchymal differentiation and OTX-008 sensitivity. A—Correlations between galectin-1 (LGALS1) and vimentin, E-cadherin (CDH1) and N-cadherin (CDH2) relative mRNA expression. B—Correlations between OTX-008 IC50s and vimentin, E-cadherin (CDH1) and N-cadherin (CDH2) relative mRNA expression. C—Antiproliferative effects of OTX-008 in epithelial COLO205-S and mesenchymal COLO205-R colon cancer cells. D—Antiproliferative effects of OTX-008 in SNAIL-inducible colon cancer cell lines. E—Antiproliferative effects of OTX-008 in shWISP breast cancer cell lines.
Cell survival was determined using the MTT assay (3-[4,5-dimethylthiazol-2-yl]-2,5-diphenyltetrazolium bromide; Sigma, Saint-Quentin Fallavier, France). The conversion of yellow water-soluble tetrazolium MTT into purple insoluble formazan is catalyzed by mitochondrial dehydrogenases and used to estimate the number of viable cells. In brief, cells were seeded in 96-well tissue culture plates at a density of 2×10^3 cells/well. […] After incubation, the supernatant was discarded, insoluble formazan precipitates were dissolved in 0.1 ml of DMSO and the absorbance was measured at 560 nm by use of a microplate reader (Thermo, France). […] IC50's were determined as the halves of maximal inhibitory drug concentration for each cell line. […]

[1] abbreviates: 10 mg/kg OTX-008 i.p. every other day.

In the case of `CN(C)CCNC(=O)COc1c2cccc1Cc1cccc(c1OCC(=O)NCCN(C)C)Cc1cccc(c1OCC(=O)NCCN(C)C)Cc1cccc(c1OCC(=O)NCCN(C)C)C2` [OTX-008], the “mice developing subcutaneous metastasis” value in the data set on SQ20B xenografts (10 mg/kg OTX-008, control group >80%) is recorded as 14%. Further, in the data set on SQ20B xenografts (setting [1]), the “toxicity of the dose” value is “non-toxic dose” and the tumor growth entry is reported as “inhibited the growth of SQ20B xenografts”. In the data set on SQ20B xenografts (SQ20B xenograft), the “cell proliferation (Ki67)” value is on record as “significant decrease” and the “galectin-1 expression in tumors” value is “significant decrease”. Also, in the data set with SQ20B xenografts (at mouse autopsies), the secondary tumor development result is recorded as “significantly inhibited secondary tumor development”. Moreover, the “number and diameter of micro-vessels” value in the data set with SQ20B xenografts (vs control) was “significantly reduced”. Besides, the “GAL1 mRNA expression” value with GAL1 mRNA is “No change”. The “effect of WISP inhibition on sensitivity” value with MCF7-shWISP is listed as “marked resistance to high concentrations of the drug”.
